What was measured:
MK2 [1] = target: T1, MK2 (Homo sapiens, UniProt P49137); assay: MK2 kinase inhibition assay (ADP-Glo); format: biochemical; settings: for IC50: mean ± SD of two independent tests
Protocol: To assess the impact of various compounds on MK2 kinase activity, we utilized the ADP‐Glo Assay Kit (Promega) following the manufacturer's instructions. Luminescence measurements were taken using a SpectraMax Paradigm reader. The inhibition percentage was calculated using the following formula: ((specific signalDMSO control − specific signal inhibitor)/(specific signalDMSO control)) × 100%. The IC50 values were determined employing dose–response curve fitting via Prism (Graph Pad).

MK2 [2] = tested on: MK2; design: method as in PMID 12147348, PMID 35691544; settings: cited from earlier work
MK2 [3] = target: T1, MK2; assay: Kinase kinetic analysis of irreversible inhibition (Mobility Shift Assay, preincubation then 100-fold dilution); format: biochemical; settings: preincubation at 100 times the IC50, monitored continuously
Excerpt: To assess its role as an irreversible MK2 kinase inhibitor, we conducted a kinetic study on compound 11. The well‐known reversible ATP‐competitive MK2 inhibitor, PF‐3644022, served as a negative control. […] The kinase‐inhibitor mixture was subsequently diluted by a factor of 100 with a reaction buffer that included both substrate peptide and ATP. Under these circumstances, the activity of MK2 kinase was continuously monitored by assessing the phosphorylated substrate percentage. […] The enzyme activity curve almost overlapped with the curve of background group, which included only the substrate peptide without inhibitors and MK2 kinase.
In the kinase kinetic analysis to elucidate the irreversible inhibition of MK2 by compound 11, a Mobility Shift Assay was conducted. […] The EZ Reader (Caliper Life Sciences, MA) was then used to assess the kinase activity of the mixture, which was monitored continuously for 1 hour.

[4] = tested on: p-Hsp27 (Ser82) and p-MK2 (T334) in THP-1 derived macrophages; assay: Western blot of MK2 signaling in LPS-stimulated THP-1 derived macrophages; format: cell-based, human; settings: 1 h preincubation, LPS 100 ng/mL 30 min
Protocol: (§1) FIGURE 4 Targeting cellular MK2 signaling with irreversible inhibition by compound 11. (A and B) RT‐PCR analysis of IL‐1β, TNF‐α, and IL‐6 expression in Lipopolysaccharides (LPS)‐stimulated THP‐1 (A) and RAW264.7 (B) Cells, with pre‐treatment of compound 11 for 3 h followed by LPS (3 h) stimulation. (C) The inhibitory effects of compound 11 on TNF‐α and IL‐6 production in LPS‐stimulated RAW264.7 macrophages for 24 h, measured by ELISA. (D and E) Compound 11, alongside CC‐99677 and PF‐3644022, suppressed MK2 pathway activation, validated through western blot analysis post‐LPS stimulation. Cells were preincubated with the specified compounds for 1 h prior to LPS stimulation (100 ng/mL, 30 min). (F) Distinguishes the mode of action between compound 11 and CC‐99677. The complex structure of a small molecule and MK2 (3R2Y) with the same parent nucleus as compound 11 is shown in cyans, and the complex structure of a small molecule and MK2 (3FYJ) with the same parent nucleus as CC‐99677 is shown in orange. (G–I) The effect of indicated inhibitor on Hsp27 phosphorylation following inhibitor washout. Cells were pretreated with indicated compounds for 1 h and then washed to remove free compound and incubated for a further indicated time before activation with LPS. In (A–C), LPS (100 ng/mL) served as the stimulation control, while untreated cells were the baseline control. The data represent as mean ± SD from triplicates, with statistical analysis conducted via one‐way analysis of variance (ANOVA) (^## p < 0.01, ^### p < 0.001 vs. stimulation control; ^***p < 0.001 vs. baseline control).
Next, the efficacy of compound 11 in cellular MK2 signaling inhibition was evaluated by examining both p‐MK2 and p‐Hsp27 at Ser82 levels, the latter being a direct downstream substrate of p‐MK2. […] We try to explore this interesting phenomenon by superimposing the complex crystal structure (3FYJ) that harboring the same skeleton as CC‐99677 (Figure 4F). […] In that way, CC‐99677 binding to MK2 kinase after pre‐incubation with cells and after LPS stimulation may cause the difference in the spatial conformation of MK2 kinase domain, which may make p38 cannot properly bind to MK2, resulting in a decrease in the phosphorylation of MK2.
After the treatment outlined in the figure legends, cells were lysed using 1× sodium dodecyl sulfate (SDS) solution. The lysates were then subjected to SDS‐polyacrylamide gel electrophoresis for separation, followed by transferring onto nitrocellulose membranes. […] Protein bands were detected using an enhanced chemiluminescence detection reagent (Thermo Fisher Scientific).

p-Hsp27 = assay: Cellular washout assay, p-Hsp27 by western blot; format: cell-based; settings: 1 h pretreatment, then LPS
Protocol: as §1
Furthermore, to validate the irreversible mechanism of action of compound 11 at the cellular level, we performed a cellular washout assay and assessed p‐Hsp27 levels. The established MK2 irreversible inhibitor CC‐99677 served as positive control, while the reversible ATP‐competitive inhibitor PF‐3644022 was used as negative control. […] In contrast, only 1 h after PF‐3644022 washout, p‐Hsp27 level was totally recovered (Figure 4I).
After the treatment outlined in the figure legends, cells were lysed using 1× sodium dodecyl sulfate (SDS) solution. The lysates were then subjected to SDS‐polyacrylamide gel electrophoresis for separation, followed by transferring onto nitrocellulose membranes. The membranes were incubated with primary antibodies specific to phospho‐MK2, phospho‐Hsp27, MK2, Hsp27, GAPDH, and β‐actin (Cell Signaling Technology), followed by horseradish peroxidase‐conjugated anti‐mouse or anti‐rabbit IgG secondary antibodies. Protein bands were detected using an enhanced chemiluminescence detection reagent (Thermo Fisher Scientific).

p38α-MK2 complex = tested on: p38α-MK2 complex; design: method as in PMID 29549113; settings: cited from earlier work

T1 sequence (P49137 whole entry): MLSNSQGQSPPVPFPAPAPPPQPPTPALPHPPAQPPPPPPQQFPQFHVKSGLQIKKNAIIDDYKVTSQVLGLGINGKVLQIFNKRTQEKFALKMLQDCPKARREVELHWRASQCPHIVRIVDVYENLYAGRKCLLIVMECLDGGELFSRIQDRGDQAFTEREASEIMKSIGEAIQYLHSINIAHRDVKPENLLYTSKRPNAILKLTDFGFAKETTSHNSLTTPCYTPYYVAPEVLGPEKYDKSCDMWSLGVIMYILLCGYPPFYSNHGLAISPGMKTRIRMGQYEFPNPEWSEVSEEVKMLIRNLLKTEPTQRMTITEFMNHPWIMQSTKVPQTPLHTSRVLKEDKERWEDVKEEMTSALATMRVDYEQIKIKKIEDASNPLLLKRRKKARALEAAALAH

## C=CC(=O)Nc1cc(OC(F)(F)F)cc(-c2cc(-c3cc4c([nH]3)CCNC4=O)ccn2)c1 [compound 10]
MK2 [1]
  IC50: 212 ± 8.3 nM

## C=CC(=O)Nc1cc(-c2cc(-c3cc4c([nH]3)CCNC4=O)ccn2)ccc1N(C)C [compound 13]
MK2 [1]
  IC50: 113 ± 3.5 nM

## Nc1ncnc2c1ncn2[C@@H]1O[C@H](COP(=O)(O)OP(=O)(O)OP(=O)(O)O)[C@@H](O)[C@H]1O [ATP]
MK2 [2]
  ATP binding affinity to MK2: approximately 30 µM

## C=CC(=O)Nc1cc(-c2cc(-c3cc4c([nH]3)CCNC4=O)ccn2)ccc1OC [compound 5]
MK2 [1]
  IC50: 36.9 ± 20.1 nM

## Cc1ccc(-c2ccc3c(ccc4sc5c(c43)NC[C@@H](C)NC5=O)n2)cn1 [PF-3644022, reference compound]
MK2 [3]
  MK2 kinase activity after 30 min preincubation with inhibitor and 100-fold dilution: recovered gradually
MK2 [1]
  IC50: 12.3 ± 1.3 nM
[4]
  effect on MK2 phosphorylation at T334 site: inhibited
p-Hsp27
  time after inhibitor washout at which p-Hsp27 level recovered: 1 h

## C=CC(=O)Nc1cc(OC)cc(-c2cc(-c3cc4c([nH]3)CCNC4=O)ccn2)c1 [compound 4]
MK2 [1]
  IC50: 452 ± 45.3 nM

## C=CC(=O)Nc1cc(-c2cc(-c3cc4c([nH]3)CCNC4=O)ccn2)ccc1C(F)(F)F [compound 9]
MK2 [1]
  IC50: 52.1 ± 0.3 nM

## C=CC(=O)Nc1cc(-c2cc(-c3cc4c([nH]3)CCNC4=O)ccn2)ccc1C [compound 7]
MK2 [1]
  IC50: 285 ± 97.5 nM

## C=CC(=O)Nc1cc(C)cc(-c2cc(-c3cc4c([nH]3)CCNC4=O)ccn2)c1 [compound 6]
MK2 [1]
  IC50: 89.5 ± 15.3 nM

## CCC(=O)Nc1cccc(-c2cc(-c3cc4c([nH]3)CCNC4=O)ccn2)c1 [compound 3]
MK2 [1]; read-out: inhibition of MK2 at 1 μM, 1 μM, inhibitory rate of two independent tests
  inhibition at 1 µM: ~30%

## CCOCc1cnc(Cl)nc1Oc1ccc2c(ccc3sc4c(c32)NC[C@@H](C)NC4=O)n1 [CC-99677, reference compound]
[4]
  effect on MK2 phosphorylation at T334 site: inhibited
p-Hsp27
  time after inhibitor washout at which p-Hsp27 level recovered: 12 h

## C=CC(=O)Nc1cc(-c2cc(-c3cc4c([nH]3)CCNC4=O)ccn2)cc(N(C)C)c1 [compound 12]
MK2 [1]
  IC50: 121 ± 26.1 nM

## C=CC(=O)Nc1cccc(-c2cc(-c3cc4c([nH]3)CCNC4=O)ccn2)c1 [compound 2]
MK2 [1]
  IC50: 728 nM

## C=CC(=O)Nc1cc(-c2cc(-c3cc4c([nH]3)CCNC4=O)ccn2)cc(C(F)(F)F)c1 [compound 8]
MK2 [1]
  IC50: 217 ± 4.8 nM

## Cc1cnc(-c2ccnc(C(C)(C)O)n2)cc1-n1c(C)cc(OCc2ncc(F)cc2F)c(Cl)c1=O [ATI-450]
p38α-MK2 complex
  potency for the p38α-MK2 complex relative to p38α-PRAK or p38α-ATF2: over 700 fold
